≈ marks a conversion by molar mass, not a printed value.
Experiments:
Mtb H37Rv [1] = experiment: TB MIC - ITR (UIC), Institute for Tuberculosis Research; assay type: cell-based, Mycobacterium tuberculosis; details: for TB MIC - UIC: Tables P1, P2; for MIC: Mycobacterium tuberculosis, H37RV, Tables 1-4, read-out: TB MIC - ITR
Mtb H37Rv [2] = experiment: TB MIC - SRI, resazurin-based microplate assay; assay type: cell-based, Mycobacterium tuberculosis; details: Mycobacterium tuberculosis, H37RV, read-out: TB MIC - SRI
NRP Mtb H37Rv cells = experiment: Low-oxygen recovery assay (LORA) MIC; assay type: cell-based, Mycobacterium tuberculosis; details: for LORA MIC: Tables P1, P2, non-replicating M. tuberculosis; for MIC: Mycobacterium tuberculosis, H37RV, NRP Mtb, Tables 1-4 and text, read-out: LORA MIC - ITR
in vitro = details: African green monkey, VERO Tox (CC50)

C[C@@H](Nc1n[n+]([O-])c2ccccc2[n+]1[O-])C1CCCCC1 (racemic) [SRI-012261]
TB MIC - UIC (Mtb H37Rv [1]): 0.92 µg/mL | MIC (Mtb H37Rv [2]; Tables P1-P3): 1.25 µg/mL (≈ 4.33 µM) | LORA MIC (NRP Mtb H37Rv cells): 0.36 µg/mL | CC50 at 72 h (in vitro): 8.9 µg/mL (≈ 30.9 µM)

[O-][n+]1nc(N[C@@H]2C[C@H]3CC[C@@H]2C3)[n+]([O-])c2ccccc21 (racemic) [SRI-012264]
TB MIC - UIC (Mtb H37Rv [1]): 0.6 µg/mL | MIC (Mtb H37Rv [2]; Tables P1-P3): 0.625 µg/mL (≈ 2.3 µM) | LORA MIC (NRP Mtb H37Rv cells): 0.42 µg/mL | CC50 at 72 h (in vitro): 3.4 µg/mL (≈ 12.5 µM)

C[C@@H]1[C@H]2C[C@@H](C[C@H]1Nc1n[n+]([O-])c3ccccc3[n+]1[O-])C2(C)C (racemic) [SRI-012273]
TB MIC - UIC (Mtb H37Rv [1]): 0.48 µg/mL | MIC (Mtb H37Rv [2]; Tables P1-P3): 1.25 µg/mL (≈ 3.98 µM) | LORA MIC (NRP Mtb H37Rv cells): 0.48 µg/mL | CC50 at 72 h (in vitro): 4.6 µg/mL (≈ 14.6 µM)

CC(=O)Nc1cc(/C=C/c2ccc([N+](=O)[O-])o2)ns1 [Cmpd 2]
MIC (Mtb H37Rv [1]): 3.8 µg/mL (≈ 13.6 µM) | MIC (Mtb H37Rv [2]; Tables 1-4 and text): 0.98 µg/mL (≈ 3.51 µM) | MIC (NRP Mtb H37Rv cells): 3.7 µg/mL (≈ 13.2 µM) | CC50 at 72 h (in vitro): > 50 µg/mL

CCC(COC)Nc1n[n+]([O-])c2ccccc2[n+]1[O-] (stereo not drawn) [Compound 8i, 3-((1-methoxybutan-2-yl)amino)benzo[e][1,2,4]triazine 1,4-dioxide]
MIC (Mtb H37Rv [1]): 6.6 µg/mL (≈ 25 µM) | MIC (Mtb H37Rv [2]; Tables 1-4 and text): 10 µg/mL (≈ 37.8 µM) | MIC (NRP Mtb H37Rv cells): 4.9 µg/mL (≈ 18.5 µM) | CC50 at 72 h (in vitro): > 50 µg/mL

CCC(COC)Nc1n[n+]([O-])c2cc(F)ccc2[n+]1[O-] (stereo not drawn) [Compound 15ai, 7-fluoro-3-((1-methoxybutan-2-yl)amino)benzo[e][1,2,4]triazine 1,4-dioxide]
MIC (Mtb H37Rv [1]): 2 µg/mL (≈ 7.09 µM) | MIC (Mtb H37Rv [2]; Tables 1-4 and text): 5 µg/mL (≈ 17.7 µM) | MIC (NRP Mtb H37Rv cells): 1.9 µg/mL (≈ 6.73 µM) | CC50 at 72 h (in vitro): 6.3 µg/mL (≈ 22.3 µM)

CCC(COC)Nc1n[n+]([O-])c2cc(Cl)ccc2[n+]1[O-] (stereo not drawn) [Compound 15bi, 7-chloro-3-((1-methoxybutan-2-yl)amino)benzo[e][1,2,4]triazine 1,4-dioxide]
MIC (Mtb H37Rv [1]): 1.4 µg/mL (≈ 4.69 µM) | MIC (Mtb H37Rv [2]; Tables 1-4 and text): 1.2 µg/mL (≈ 4.02 µM) | MIC (NRP Mtb H37Rv cells): 0.78 µg/mL (≈ 2.61 µM) | CC50 at 72 h (in vitro): 2.6 µg/mL (≈ 8.7 µM)

CC(C)(C)C1CCC(Nc2n[n+]([O-])c3ccccc3[n+]2[O-])CC1 (stereo not drawn) [SRI-012257]
TB MIC - UIC (Mtb H37Rv [1]): 0.22 µg/mL | MIC (Mtb H37Rv [2]; Tables P1-P3): 0.625 µg/mL (≈ 1.98 µM) | LORA MIC (NRP Mtb H37Rv cells): < 0.125 µg/mL | CC50 at 72 h (in vitro): 2.3 µg/mL (≈ 7.27 µM)

CC(C)CCC(C)Nc1n[n+]([O-])c2ccccc2[n+]1[O-] (stereo not drawn) [SRI-012259]
TB MIC - UIC (Mtb H37Rv [1]): 0.52 µg/mL | MIC (Mtb H37Rv [2]; Tables P1-P3): 1.25 µg/mL (≈ 4.52 µM) | LORA MIC (NRP Mtb H37Rv cells): 0.38 µg/mL | CC50 at 72 h (in vitro): 4.1 µg/mL (≈ 14.8 µM)

[O-][n+]1nc(NC2CCC2)[n+]([O-])c2ccccc21 [SRI-012260]
TB MIC - UIC (Mtb H37Rv [1]): 0.94 µg/mL | MIC (Mtb H37Rv [2]; Tables P1-P3): 1.25 µg/mL (≈ 5.38 µM) | LORA MIC (NRP Mtb H37Rv cells): 0.84 µg/mL | CC50 at 72 h (in vitro): 8.9 µg/mL (≈ 38.3 µM)

CCC(C)Nc1n[n+]([O-])c2ccccc2[n+]1[O-] (stereo not drawn) [SRI-012262]
TB MIC - UIC (Mtb H37Rv [1]): 2 µg/mL | MIC (Mtb H37Rv [2]; Tables P1-P3): 2.5 µg/mL (≈ 10.7 µM) | LORA MIC (NRP Mtb H37Rv cells): 1.28 µg/mL | CC50 at 72 h (in vitro): 21.6 µg/mL (≈ 92.2 µM)

CC(C)CC(C)Nc1n[n+]([O-])c2ccccc2[n+]1[O-] (stereo not drawn) [SRI-012263]
TB MIC - UIC (Mtb H37Rv [1]): 1.98 µg/mL | MIC (Mtb H37Rv [2]; Tables P1-P3): 2.5 µg/mL (≈ 9.53 µM) | LORA MIC (NRP Mtb H37Rv cells): 0.83 µg/mL | CC50 at 72 h (in vitro): 11.7 µg/mL (≈ 44.6 µM)

[O-][n+]1nc(NC2CCCCC2)[n+]([O-])c2ccccc21 [SRI-012266]
TB MIC - UIC (Mtb H37Rv [1]): 3.77 µg/mL | LORA MIC (NRP Mtb H37Rv cells): 0.75 µg/mL | CC50 at 72 h (in vitro): 8.9 µg/mL (≈ 34.2 µM)

CC(C)C(C)Nc1n[n+]([O-])c2ccccc2[n+]1[O-] (stereo not drawn) [SRI-012267]
TB MIC - UIC (Mtb H37Rv [1]): 1.93 µg/mL | MIC (Mtb H37Rv [2]; Tables P1-P3): 5 µg/mL (≈ 20.1 µM) | LORA MIC (NRP Mtb H37Rv cells): 0.98 µg/mL | CC50 at 72 h (in vitro): 21 µg/mL (≈ 84.6 µM)

CC(Nc1n[n+]([O-])c2ccccc2[n+]1[O-])C(C)(C)C (stereo not drawn) [SRI-012268]
TB MIC - UIC (Mtb H37Rv [1]): 2.43 µg/mL | MIC (Mtb H37Rv [2]; Tables P1-P3): 5 µg/mL (≈ 19.1 µM) | LORA MIC (NRP Mtb H37Rv cells): 1 µg/mL | CC50 at 72 h (in vitro): 20.2 µg/mL (≈ 77 µM)

[O-][n+]1nc(NC2[C@H]3C[C@@H]4C[C@@H](C[C@H]2C4)C3)[n+]([O-])c2ccccc21 (stereo partly drawn) [SRI-012269]
TB MIC - UIC (Mtb H37Rv [1]): 1.91 µg/mL | MIC (Mtb H37Rv [2]; Tables P1-P3): 2.5 µg/mL (≈ 8 µM) | LORA MIC (NRP Mtb H37Rv cells): 2.33 µg/mL | CC50 at 72 h (in vitro): 7.3 µg/mL (≈ 23.4 µM)

CC1CC(Nc2n[n+]([O-])c3ccccc3[n+]2[O-])CC(C)(C)C1 (stereo not drawn) [SRI-012270]
TB MIC - UIC (Mtb H37Rv [1]): 0.57 µg/mL | MIC (Mtb H37Rv [2]; Tables P1-P3): 1.25 µg/mL (≈ 4.13 µM) | LORA MIC (NRP Mtb H37Rv cells): 0.39 µg/mL | CC50 at 72 h (in vitro): 5.2 µg/mL (≈ 17.2 µM)

CCC(CC)Nc1n[n+]([O-])c2ccccc2[n+]1[O-] [SRI-012271]
TB MIC - UIC (Mtb H37Rv [1]): 3.63 µg/mL | MIC (Mtb H37Rv [2]; Tables P1-P3): 5 µg/mL (≈ 20.1 µM) | LORA MIC (NRP Mtb H37Rv cells): 1.94 µg/mL | CC50 at 72 h (in vitro): 36.5 µg/mL (≈ 147 µM)

CCC(COC)Nc1n[n+]([O-])c2ccccc2[n+]1[O-] (stereo not drawn) [SRI-012272]
TB MIC - UIC (Mtb H37Rv [1]): 6.57 µg/mL | MIC (Mtb H37Rv [2]; Tables P1-P3): 10 µg/mL (≈ 37.8 µM) | LORA MIC (NRP Mtb H37Rv cells): 4.87 µg/mL | CC50 at 72 h (in vitro): 50 µg/mL (≈ 189 µM)
